No end group written: not given here.

Holding throughout (assay type): cell-based, mouse
The subject of assay [1] is NkL-TAg cells. The assay is described as follows: Induction of differentiation of NkL-TAg cells, sarcomeric α-actinin immunocytochemistry. As to conditions: for sarcomere formation as assessed by α-actinin immunocytochemistry: NkL-TAg cells prior to depletion of TAg; for induction of sarcomere formation: NkL-TAg cells after removal of TAg, in differentiation medium (5% horse serum, insulin, transferrin, selenium). The procedure:
(§1) Cell Culture. Cells were isolated from sub-endocardial tumor-like structures in the hearts of transgenic mice as previously described with some modifications (Paradis et al, 1996). Briefly, dissected tissues were minced and dissociated using an enzyme mix containing 0.2% […] (Worthington) and 0.6 mg/ml of pancreatin (Sigma). Cardiac cells derived from Nk-TAg and NkL-TAg mice were maintained in DMEM/F12 media supplemented with 100 IU/ml penicillin, 100 μg/ml streptomycin, 2 mM Lglutamine, and 10% fetal bovine serum (FBS) on plates coated with […] fibronectin and 0.1% 2 gelatin. Cloning cylinders were used to harvest cell clones. Cell growth curves were generated by plating 1.5×10^5 or 2×10^5 cells (as indicated) in growth medium onto 100 mm plates and counting total cell number every 24 hours for 5 days. Differentiation medium contains DMEM/F12 supplemented with 100 IU/ml penicillin, 100 μg/ml streptomycin, 2 mM L-glutamine, 5% heat inactivated horse serum, […], […] and 6.7 ng/ml sodium selenite.
Histochemical Analysis. Heart tissue was fixed in 10% phosphate-buffered formalin and stained with hematoxylin-eosin. Nk-TAg and NkL-TAg cells were cultured on coverslips and fixed for 10 minutes with either −20° C. methanol or 4% paraformaldehyde for immunohistochemistry. Blocking was performed by incubating fixed cells with 1.5% bovine serum albumin and 10% normal goat serum in PBS for 20 minutes. […] Secondary antibodies conjugated to either FITC or Texas Red (1:200, Vector Labs) were diluted in PBS and incubated for 30 minutes at room temperature. In some cases, nuclei were co-stained with DAPI (10 mg/ml) for 1 minute. Coverslips were mounted with Vectashield (Vector Laboratories) and fluorescence or confocal images were captured using Leica DMRXE or Zeiss 3.95 microscopes, respectively.
Viral Infection. Cells were infected with recombinant adenoviruses (Ad) at a multiplicity of infection (MOI) of 100 for 3 to 12 hrs. The medium was replaced with growth medium, and NkL-TAg cells were cultured for the indicated times before analyses. Recombinant adenoviruses were obtained from the following sources: Ad-Cre recombinase (Ad-Cre) was provided by Dr. Frank Graham (McMaster University) (Anton and Graham, 1995); GATA4 (Ad-GATA4), Nkx2.5 (Ad-Nkx2.5), MEK6 (Ad-MEK6), and GFP (Ad-GFP) were generated using the “Easy-Track” system as described (He et al., 1998); antisense HDAC4 and HDAC5 (Ad-HDAC4 or 5), expressing coding regions of HDAC genes in reverse orientation, were provided by Chun Zhang; MEF2C (Ad-MEF2C) was provided by Rebekka Nicol (HDAC 4/5 and MEF2c viruses were generated using pAC-CMV vector); constitutively active calcineurin (Ad-CnA), IGF-I receptor (Ad-IGFI), constitutively active CaMKI (Ad-CaMKI), β-galactosidase (Ad-LacZ) were generated by Dr. Robert Gerard (UT Southwestern) and were constructed using an in vitro Cre-lox recombination system (Aoki et al., 1999; Ng et al. 1999).

The test system of assay [2] is Nk-TAg cells. Put plainly: α-actinin immunohistochemistry and sarcomere assembly in Nk-TAg cells. The note with it: for assembly of sarcomeres: hypertrophic agents added (20 nM ET-1, 100 mM [sic] PE, 1 mM [sic] angiotensin II). The procedure:
Histochemical Analysis. Heart tissue was fixed in 10% phosphate-buffered formalin and stained with hematoxylin-eosin. Nk-TAg and NkL-TAg cells were cultured on coverslips and fixed for 10 minutes with either −20° C. methanol or 4% paraformaldehyde for immunohistochemistry. Blocking was performed by incubating fixed cells with 1.5% bovine serum albumin and 10% normal goat serum in PBS for 20 minutes. Primary antibodies were incubated for 30-60 minutes in 1.5% bovine serum albumin in PBS as follows: monoclonal anti-myosin (smooth) (1:100, Sigma), polyclonal antimyosin (skeletal) (1:100, Sigma), monoclonal anti-α-smooth muscle actin (1:100, Sigma), monoclonal anti-skeletal myosin (slow) (1:100, Sigma), polyclonal anti-connexin 43 (1:100, Sigma), monoclonal anti-α-sarcomeric actin clone 5C5 (1:100, Sigma), monoclonal anti-desmin (1:100, Sigma), monoclonal anti-calponin (1:100, Sigma), monoclonal anti-α-actinin (sarcomeric) clone EA-53 (1:200, Sigma), monoclonal anti-SV40 T antigen (1:100, Santa Cruz). Secondary antibodies conjugated to either FITC or Texas Red (1:200, Vector Labs) were diluted in PBS and incubated for 30 minutes at room temperature. In some cases, nuclei were co-stained with DAPI (10 mg/ml) for 1 minute. Coverslips were mounted with Vectashield (Vector Laboratories) and fluorescence or confocal images were captured using Leica DMRXE or Zeiss 3.95 microscopes, respectively.
Drug treatment. Drugs were added into cell culture media as indicated at the following concentrations: 100 mM phenylephrine (PE), 10 mM norepinephrine (NE), 10 ng/ml recombinant human transforming growth factor-β1 (TGFβ1) (R&D Systems), 1 mM dynorphin-β (Peninsula Laboratories), 1 mM trans- or cis-retinoic acid (Sigma), 15 ng/ml bone morphogenetic protein (BMP)-2/4 (Genetics Institute, Cambridge, Mass.), 1 mM angiotensin II (R&D Systems), 20 nM endothelin-1 (ET-1) (R&D Systems), 100 ng/ml insulin-like growth factor I (IGF-I) (Roche), 5-azacytidine (Sigma), and 10 mg/ml mitomycin C (Sigma).

Assay [3] relates to Nk-TAg cells. The assay is described as follows: Proliferation of Nk-TAg cardiac cell lines. The note with it: drug added to the growth medium; mitomycin C 10 mg/ml as printed. On the procedure: as §1
Drug treatment. […]

Take `Nc1ncn([C@@H]2O[C@H](CO)[C@@H](O)[C@H]2O)c(=O)n1` [5-azacytidine]: the “sarcomere formation as assessed by α-actinin immunocytochemistry” value (shortened to “sarcomere formation as assessed”) in assay [1] is listed as “no effect”.

Take `NC[C@H](O)c1ccc(O)c(O)c1` [NE, norepinephrine]: in assay [1], the “induction of sarcomere formation” value was “further induction of sarcomere formation in some cells” and the “sarcomere formation as assessed” value was “no effect”.

On to `CNC[C@H](O)c1cccc(O)c1` [PE, phenylephrine], for which, in assay [2], the assembly of sarcomeres entry is given as “did not further induce the assembly of sarcomeres”. Moreover, in assay [1], the “induction of sarcomere formation” value is reported as “further induction of sarcomere formation in some cells” and the “sarcomere formation as assessed” value is “no effect”.

`Cn1c(=O)c2c(ncn2C)n(C)c1=O` [caffeine]: in assay [1], the “sarcomere formation as assessed” value is reported as “no effect”.

`CC1=C(/C=C/C(C)=C/C=C/C(C)=C\C(=O)O)C(C)(C)CCC1` [cis-retinoic acid]: the “sarcomere formation as assessed” value in assay [1] was “no effect”.

For `C[C@H](CCC(=O)O)C[C@H](C)C[C@H](C)C(=O)/C=C(\O)[C@H](C)C[C@H](C)C/C=C/[C@@H](C)[C@@H](O)[C@@H](C)[C@@H](O)C[C@@H]1CC[C@@](C)([C@H]2CC[C@@](C)([C@@H](C)O)O2)O1` [ionomycin], the “sarcomere formation as assessed” value in assay [1] is “no effect”.

Turning to `CO[C@@]12[C@H](COC(N)=O)C3=C(C(=O)C(C)=C(N)C3=O)N1C[C@@H]1N[C@@H]12` [mitomycin C], the “expression of α-actinin” value in assay [2] (immunohistochemistry, in the cytoplasm as unassembled Z-lines, mitomycin C 10 mg/ml as printed) is “enhanced expression of α-actinin”. Moreover, the “proliferation of the Nk-TAg cells” value in assay [3] is listed as “abated proliferation”.

Take `[Cl-].[K+]` [potassium chloride]: in assay [1], the “sarcomere formation as assessed” value is “no effect”.

For the compound `CC1=C(/C=C/C(C)=C/C=C/C(C)=C/C(=O)O)C(C)(C)CCC1` [trans-retinoic acid], the “sarcomere formation as assessed” value in assay [1] is on record as “no effect”.

As for “IGF-I: insulin-like growth factor I (Roche)”, the “sarcomere formation as assessed” value in assay [1] was “no effect”.

As to “TGFb1: recombinant human transforming growth factor-β1 (R&D Systems)”, the “sarcomere formation as assessed” value in assay [1] is listed as “no effect”.

Take “angiotensin II (DRVYIHPF; Angiotensin-2; UniProt P01019 25-32, looked up)”: the assembly of sarcomeres result in assay [2] was “did not further induce the assembly of sarcomeres”.

For the compound bFGF: basic fibroblast growth factor, the “sarcomere formation as assessed” value in assay [1] is “no effect”.

Consider dynorphin-β, for which the “sarcomere formation as assessed” value in assay [1] is given as “no effect”.

Regarding “endothelin-1 (CSCSSLMDKECVYFCHLDIIW; ends and bridges not checked; cysteine pairing not given here; UniProt P05305 53-73, looked up) [ET-1]”, the assembly of sarcomeres entry in assay [2] is “did not further induce the assembly of sarcomeres”.

(Values after patent publication US20040003424A1, “Transgenic cardiomyocytes with controlled proliferation and differentiation” (Board of Regents, The University of Texas System, priority 2002, published 2004).)
